From ChEMBL document CHEMBL4325871 (Eur J Med Chem, 2019)
Each block holds one compound with its values, some of them ahead of it.

What was measured:
[1] = biological target: T1, Serine/threonine-protein kinase Nek6 (Homo sapiens, UniProt Q9HC98)
[2] = biological target: T1, Serine/threonine-protein kinase Nek6; assay: Inhibition of human NEK6 assessed as residual activity at 100 uM using casein as substrate by [gamma-33P]-ATP assay relative to control
[3] = biological target: T2, Serine/threonine-protein kinase Nek7 (Homo sapiens, UniProt Q8TDX7)
[4] = biological target: T2, Serine/threonine-protein kinase Nek7; assay: Inhibition of human NEK7 assessed as residual activity at 100 uM using casein as substrate by [gamma-33P]-ATP assay relative to control
[5] = biological target: T3, Casein kinase II subunit alpha (Homo sapiens, UniProt P68400)
[6] = biological target: Serine/threonine-protein kinase A-Raf (Homo sapiens, UniProt P10398)
[7] = biological target: T3, Casein kinase II subunit alpha; assay: Inhibition of human CK2A assessed as residual activity at 100 uM using RRRDDDSDDD as substrate by [gamma-33P]-ATP assay relative to control
[8] = biological target: Dual specificity tyrosine-phosphorylation-regulated kinase 4 (Homo sapiens) (UniProt Q9NR20); assay: Inhibition of human DYRK4 assessed as residual activity at 100 uM using RRRFRPASPLRGPPK as substrate by [gamma-33P]-ATP assay relative to control
[9] = biological target: Dual specificity tyrosine-phosphorylation-regulated kinase 4 (Homo sapiens, UniProt Q9NR20)
[10] = biological target: T4, Receptor-interacting serine/threonine-protein kinase 3 (Homo sapiens, UniProt Q9Y572); assay: Inhibition of human RIPK3 assessed as residual activity at 100 uM using MBP as substrate by [gamma-33P]-ATP assay relative to control
[11] = biological target: T5, Serine/threonine-protein kinase A-Raf (Homo sapiens) (UniProt P10398); assay: Inhibition of human ARAF assessed as residual activity at 100 uM using MEK1 as substrate by [gamma-33P]-ATP assay relative to control
T5 sequence (whole entry): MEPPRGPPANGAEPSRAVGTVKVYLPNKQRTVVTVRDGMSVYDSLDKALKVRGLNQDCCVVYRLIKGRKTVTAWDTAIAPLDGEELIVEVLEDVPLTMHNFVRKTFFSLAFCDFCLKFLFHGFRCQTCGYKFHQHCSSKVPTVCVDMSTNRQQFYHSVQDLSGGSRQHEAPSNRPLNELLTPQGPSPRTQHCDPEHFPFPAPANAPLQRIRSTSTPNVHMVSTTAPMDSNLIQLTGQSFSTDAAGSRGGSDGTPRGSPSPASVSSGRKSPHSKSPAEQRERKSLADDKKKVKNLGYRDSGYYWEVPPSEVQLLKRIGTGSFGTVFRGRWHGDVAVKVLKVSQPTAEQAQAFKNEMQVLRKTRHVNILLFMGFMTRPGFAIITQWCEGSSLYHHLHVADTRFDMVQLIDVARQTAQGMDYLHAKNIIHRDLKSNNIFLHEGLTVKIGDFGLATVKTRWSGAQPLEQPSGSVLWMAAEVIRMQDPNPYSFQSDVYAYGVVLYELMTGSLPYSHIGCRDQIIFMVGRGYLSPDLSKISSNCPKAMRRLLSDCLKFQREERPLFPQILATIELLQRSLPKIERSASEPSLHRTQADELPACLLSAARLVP

[12] = biological target: T4, Receptor-interacting serine/threonine-protein kinase 3
[13] = biological target: T6, Mitogen-activated protein kinase kinase kinase 20 (Homo sapiens, UniProt Q9NYL2); assay: Inhibition of human ZAK assessed as residual activity at 100 uM using MBP as substrate by [gamma-33P]-ATP assay relative to control
[14] = biological target: T6, Mitogen-activated protein kinase kinase kinase 20
[15] = biological target: Tau-tubulin kinase 2 (Homo sapiens) (UniProt Q6IQ55); assay: Inhibition of human TTBK2 assessed as residual activity at 100 uM using MBP as substrate by [gamma-33P]-ATP assay relative to control
[16] = biological target: Mitogen-activated protein kinase 11 (Homo sapiens) (UniProt Q15759); assay: Inhibition of human p38beta assessed as residual activity at 100 uM using MBP as substrate by [gamma-33P]-ATP assay relative to control
Tau-tubulin kinase 1 [17] = biological target: T7, Tau-tubulin kinase 1 (Homo sapiens, UniProt Q5TCY1); assay: Inhibition of human TTBK1 assessed as residual activity at 100 uM using MBP as substrate by [gamma-33P]-ATP assay relative to control
[18] = biological target: T8, Serine/threonine-protein kinase WNK3 (Homo sapiens, UniProt Q9BYP7)
[19] = biological target: Wee1-like protein kinase (Homo sapiens) (UniProt P30291); assay: Inhibition of human WEE1 assessed as residual activity at 100 uM using MBP as substrate by [gamma-33P]-ATP assay relative to control
[20] = biological target: T8, Serine/threonine-protein kinase WNK3; assay: Inhibition of human WNK3 assessed as residual activity at 100 uM using MBP as substrate by [gamma-33P]-ATP assay relative to control
[21] = biological target: T9, Homeodomain-interacting protein kinase 1 (Homo sapiens, UniProt Q86Z02)
[22] = biological target: T10, Serine/threonine-protein kinase VRK2 (Homo sapiens, UniProt Q86Y07); assay: Inhibition of human VRK2 assessed as residual activity at 100 uM using casein as substrate by [gamma-33P]-ATP assay relative to control
[23] = biological target: T11, Mitogen-activated protein kinase kinase kinase kinase 1 (Homo sapiens, UniProt Q92918); assay: Inhibition of human HPK1 assessed as residual activity at 100 uM using MBP as substrate by [gamma-33P]-ATP assay relative to control
[24] = biological target: T12, Mitogen-activated protein kinase kinase kinase 8 (Homo sapiens, UniProt P41279)
[25] = biological target: T12, Mitogen-activated protein kinase kinase kinase 8; assay: Inhibition of human COT1 assessed as residual activity at 100 uM using MEK1 as substrate by [gamma-33P]-ATP assay relative to control
[26] = biological target: T11, Mitogen-activated protein kinase kinase kinase kinase 1
[27] = biological target: Serine/threonine-protein kinase VRK1 (Homo sapiens, UniProt Q99986)
[28] = biological target: T10, Serine/threonine-protein kinase VRK2
[29] = biological target: T9, Homeodomain-interacting protein kinase 1; assay: Inhibition of human HIPK1 assessed as residual activity at 100 uM using MBP as substrate by [gamma-33P]-ATP assay relative to control
[30] = biological target: Tyrosine-protein kinase JAK3 (Homo sapiens) (UniProt P52333); assay: Inhibition of human JAK3 assessed as residual activity at 100 uM using poly[Glu:Tyr] (4:1) as substrate by [gamma-33P]-ATP assay relative to control
Tau-tubulin kinase 1 [31] = biological target: T7, Tau-tubulin kinase 1
[32] = biological target: Activin receptor type-1B (Homo sapiens) (UniProt P36896); assay: Inhibition of human ALK4 assessed as residual activity at 100 uM using casein as substrate by [gamma-33P]-ATP assay relative to control
[33] = biological target: Activin receptor type-1-like (Homo sapiens) (UniProt P37023); assay: Inhibition of human ALK1 assessed as residual activity at 100 uM using casein as substrate by [gamma-33P]-ATP assay relative to control
[34] = biological target: Bone morphogenetic protein receptor type-1B (Homo sapiens) (UniProt O00238); assay: Inhibition of human ALK6 assessed as residual activity at 100 uM using casein as substrate by [gamma-33P]-ATP assay relative to control
TGF-beta receptor type-2 [35] = biological target: T13, TGF-beta receptor type-2 (Homo sapiens, UniProt P37173); assay: Inhibition of human TGFBR2 assessed as residual activity at 100 uM using MBP as substrate by [gamma-33P]-ATP assay relative to control
[36] = biological target: Bone morphogenetic protein receptor type-1A (Homo sapiens) (UniProt P36894); assay: Inhibition of human ALK3 assessed as residual activity at 100 uM using casein as substrate by [gamma-33P]-ATP assay relative to control
TGF-beta receptor type-2 [37] = biological target: T13, TGF-beta receptor type-2

T7 sequence (Q5TCY1 whole entry): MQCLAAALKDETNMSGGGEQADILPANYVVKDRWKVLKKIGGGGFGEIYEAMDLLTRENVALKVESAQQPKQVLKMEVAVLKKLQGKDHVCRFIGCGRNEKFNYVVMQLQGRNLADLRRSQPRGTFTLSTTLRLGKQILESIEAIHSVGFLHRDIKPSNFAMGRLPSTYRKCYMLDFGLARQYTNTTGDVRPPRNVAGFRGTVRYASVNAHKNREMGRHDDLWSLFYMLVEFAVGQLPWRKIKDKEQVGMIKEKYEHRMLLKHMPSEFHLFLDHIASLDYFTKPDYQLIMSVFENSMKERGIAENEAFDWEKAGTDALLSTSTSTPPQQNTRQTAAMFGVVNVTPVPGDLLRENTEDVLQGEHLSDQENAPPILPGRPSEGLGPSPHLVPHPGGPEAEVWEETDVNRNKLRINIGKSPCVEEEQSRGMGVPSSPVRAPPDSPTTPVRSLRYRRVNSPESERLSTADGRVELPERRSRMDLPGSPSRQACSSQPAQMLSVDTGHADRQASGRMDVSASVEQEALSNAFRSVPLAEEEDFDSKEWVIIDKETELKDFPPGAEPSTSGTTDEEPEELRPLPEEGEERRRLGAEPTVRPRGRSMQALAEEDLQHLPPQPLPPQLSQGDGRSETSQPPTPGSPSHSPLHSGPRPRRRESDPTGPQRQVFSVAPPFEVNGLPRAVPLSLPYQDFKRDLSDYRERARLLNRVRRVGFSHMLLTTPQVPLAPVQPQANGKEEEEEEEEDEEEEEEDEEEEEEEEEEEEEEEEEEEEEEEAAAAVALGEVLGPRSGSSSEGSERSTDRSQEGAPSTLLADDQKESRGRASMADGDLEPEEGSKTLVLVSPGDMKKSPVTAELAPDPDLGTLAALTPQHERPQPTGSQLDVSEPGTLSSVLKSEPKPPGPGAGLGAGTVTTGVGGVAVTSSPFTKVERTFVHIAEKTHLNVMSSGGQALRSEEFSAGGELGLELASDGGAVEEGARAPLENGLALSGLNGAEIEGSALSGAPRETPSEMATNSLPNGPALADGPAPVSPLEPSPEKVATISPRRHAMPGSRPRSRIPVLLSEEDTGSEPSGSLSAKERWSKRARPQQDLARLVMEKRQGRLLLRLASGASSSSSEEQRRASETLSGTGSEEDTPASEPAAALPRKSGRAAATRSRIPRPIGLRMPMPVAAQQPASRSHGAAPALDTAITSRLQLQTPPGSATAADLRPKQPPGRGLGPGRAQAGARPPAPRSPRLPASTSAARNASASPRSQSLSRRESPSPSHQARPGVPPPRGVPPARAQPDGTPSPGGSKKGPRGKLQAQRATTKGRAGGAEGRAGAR
T12 sequence (P41279 whole entry): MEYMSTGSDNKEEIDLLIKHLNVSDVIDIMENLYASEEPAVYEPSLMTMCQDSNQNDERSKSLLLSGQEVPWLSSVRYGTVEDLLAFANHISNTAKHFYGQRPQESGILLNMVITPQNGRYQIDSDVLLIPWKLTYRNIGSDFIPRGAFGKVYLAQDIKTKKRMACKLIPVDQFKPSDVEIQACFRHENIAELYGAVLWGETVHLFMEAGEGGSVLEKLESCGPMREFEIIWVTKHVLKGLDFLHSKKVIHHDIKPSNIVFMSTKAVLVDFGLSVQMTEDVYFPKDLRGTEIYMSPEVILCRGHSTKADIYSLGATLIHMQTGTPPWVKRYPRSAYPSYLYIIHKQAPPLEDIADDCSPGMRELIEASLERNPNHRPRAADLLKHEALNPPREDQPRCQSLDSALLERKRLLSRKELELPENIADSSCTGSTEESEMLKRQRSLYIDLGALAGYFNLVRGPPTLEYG
T13 sequence (P37173 whole entry): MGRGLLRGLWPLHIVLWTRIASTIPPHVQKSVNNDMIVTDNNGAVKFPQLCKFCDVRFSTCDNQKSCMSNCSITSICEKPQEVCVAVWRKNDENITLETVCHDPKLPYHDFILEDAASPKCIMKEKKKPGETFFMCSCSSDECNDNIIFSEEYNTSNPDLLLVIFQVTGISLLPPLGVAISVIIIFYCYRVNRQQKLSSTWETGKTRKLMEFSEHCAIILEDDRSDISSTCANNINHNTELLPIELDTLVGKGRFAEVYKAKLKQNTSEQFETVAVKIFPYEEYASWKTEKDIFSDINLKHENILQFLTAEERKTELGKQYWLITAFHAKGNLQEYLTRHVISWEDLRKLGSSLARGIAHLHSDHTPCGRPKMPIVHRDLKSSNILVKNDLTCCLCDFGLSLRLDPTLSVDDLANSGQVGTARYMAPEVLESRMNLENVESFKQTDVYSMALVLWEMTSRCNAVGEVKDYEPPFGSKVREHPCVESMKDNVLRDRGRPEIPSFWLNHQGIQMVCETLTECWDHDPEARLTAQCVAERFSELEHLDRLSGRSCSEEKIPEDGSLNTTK
T10 sequence (Q86Y07 whole entry): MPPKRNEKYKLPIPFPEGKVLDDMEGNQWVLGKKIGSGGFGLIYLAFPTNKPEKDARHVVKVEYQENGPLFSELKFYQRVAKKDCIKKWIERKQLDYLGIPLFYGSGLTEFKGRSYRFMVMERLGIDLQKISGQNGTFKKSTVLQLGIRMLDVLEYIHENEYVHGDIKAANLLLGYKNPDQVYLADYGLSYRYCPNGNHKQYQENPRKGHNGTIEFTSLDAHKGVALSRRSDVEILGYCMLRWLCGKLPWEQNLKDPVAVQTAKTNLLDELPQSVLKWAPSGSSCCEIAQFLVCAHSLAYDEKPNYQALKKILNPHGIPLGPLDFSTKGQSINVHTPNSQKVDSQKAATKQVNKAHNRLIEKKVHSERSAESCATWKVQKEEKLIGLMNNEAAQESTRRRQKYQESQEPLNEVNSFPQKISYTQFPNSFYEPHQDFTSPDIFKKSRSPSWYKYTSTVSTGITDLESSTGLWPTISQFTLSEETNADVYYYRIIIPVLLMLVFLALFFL
T1 sequence (Q9HC98 whole entry): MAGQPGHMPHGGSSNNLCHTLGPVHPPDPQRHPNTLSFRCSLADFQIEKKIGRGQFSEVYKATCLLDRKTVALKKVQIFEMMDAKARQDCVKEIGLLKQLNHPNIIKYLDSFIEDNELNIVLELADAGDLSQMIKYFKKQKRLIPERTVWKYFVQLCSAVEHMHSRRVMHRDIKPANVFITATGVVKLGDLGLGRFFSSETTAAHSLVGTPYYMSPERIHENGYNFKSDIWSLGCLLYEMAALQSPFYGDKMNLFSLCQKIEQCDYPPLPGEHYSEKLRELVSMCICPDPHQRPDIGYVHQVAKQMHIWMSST
T8 sequence (Q9BYP7 whole entry): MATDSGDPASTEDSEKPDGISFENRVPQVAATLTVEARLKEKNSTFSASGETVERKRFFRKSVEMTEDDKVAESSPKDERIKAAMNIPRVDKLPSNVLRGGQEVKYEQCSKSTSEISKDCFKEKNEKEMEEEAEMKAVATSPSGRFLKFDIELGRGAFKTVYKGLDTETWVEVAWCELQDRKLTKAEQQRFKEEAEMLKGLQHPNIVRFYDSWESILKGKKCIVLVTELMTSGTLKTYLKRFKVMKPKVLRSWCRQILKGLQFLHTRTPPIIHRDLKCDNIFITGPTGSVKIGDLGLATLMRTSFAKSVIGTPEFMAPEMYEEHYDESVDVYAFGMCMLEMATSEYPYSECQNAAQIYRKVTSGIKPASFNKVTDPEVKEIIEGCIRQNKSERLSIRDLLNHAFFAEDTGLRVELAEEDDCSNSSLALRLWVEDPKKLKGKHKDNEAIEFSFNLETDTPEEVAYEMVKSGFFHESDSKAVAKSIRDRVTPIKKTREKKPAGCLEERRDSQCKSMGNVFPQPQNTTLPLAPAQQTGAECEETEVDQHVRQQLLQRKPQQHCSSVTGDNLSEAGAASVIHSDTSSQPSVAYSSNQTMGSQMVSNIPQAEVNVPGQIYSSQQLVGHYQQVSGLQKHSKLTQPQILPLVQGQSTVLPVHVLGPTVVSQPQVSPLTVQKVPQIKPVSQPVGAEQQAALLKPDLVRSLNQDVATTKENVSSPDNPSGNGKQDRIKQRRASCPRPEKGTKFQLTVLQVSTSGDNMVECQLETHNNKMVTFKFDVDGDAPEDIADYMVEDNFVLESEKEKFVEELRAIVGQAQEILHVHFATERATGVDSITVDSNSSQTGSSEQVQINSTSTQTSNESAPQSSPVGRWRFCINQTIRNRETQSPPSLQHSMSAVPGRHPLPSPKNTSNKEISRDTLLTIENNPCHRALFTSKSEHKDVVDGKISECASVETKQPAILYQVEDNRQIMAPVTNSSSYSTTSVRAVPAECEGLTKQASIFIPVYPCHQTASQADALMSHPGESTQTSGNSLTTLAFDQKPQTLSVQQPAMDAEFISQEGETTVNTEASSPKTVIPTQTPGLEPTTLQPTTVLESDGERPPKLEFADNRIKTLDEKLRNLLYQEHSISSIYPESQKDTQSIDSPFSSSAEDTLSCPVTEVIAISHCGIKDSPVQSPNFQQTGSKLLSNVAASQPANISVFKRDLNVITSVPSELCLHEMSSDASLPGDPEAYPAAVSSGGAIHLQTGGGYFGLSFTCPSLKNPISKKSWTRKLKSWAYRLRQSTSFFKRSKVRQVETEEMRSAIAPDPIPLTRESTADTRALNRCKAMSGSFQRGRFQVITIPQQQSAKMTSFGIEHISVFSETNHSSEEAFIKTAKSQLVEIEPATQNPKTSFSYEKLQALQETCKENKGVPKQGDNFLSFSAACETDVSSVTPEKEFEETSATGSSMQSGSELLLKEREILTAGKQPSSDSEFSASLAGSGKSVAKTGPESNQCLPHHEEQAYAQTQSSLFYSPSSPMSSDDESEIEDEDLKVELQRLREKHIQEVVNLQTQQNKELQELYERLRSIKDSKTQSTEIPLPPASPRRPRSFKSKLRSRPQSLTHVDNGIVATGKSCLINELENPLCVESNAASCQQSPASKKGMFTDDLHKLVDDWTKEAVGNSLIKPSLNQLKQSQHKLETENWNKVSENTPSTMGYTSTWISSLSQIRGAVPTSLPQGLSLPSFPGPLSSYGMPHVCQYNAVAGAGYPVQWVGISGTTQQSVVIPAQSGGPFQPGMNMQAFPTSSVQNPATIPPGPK

Structure (SMILES): O=C1Nc2ccc3ncsc3c2/C1=C/c1c[nH]cn1
IC50 [1]: 59.8 µM
Activity [2]: < 65%
IC50 [3]: 7.28 µM
Activity [4]: < 65%

Structure (SMILES): Oc1ccc(-c2nc(-c3ccc(F)cc3)c(-c3ccncc3)[nH]2)cc1
Activity [15]: < 65%
Activity [16]: < 65%
Activity (Tau-tubulin kinase 1 [17]): < 65%

Structure (SMILES): C=CCn1c(=O)c2cnc(Nc3ccc(N4CCN(C)CC4)cc3)nc2n1-c1cccc(C(C)(C)O)n1 [ADAVOSERTIB]
IC50 [18]: 2.31 µM
Activity [19]: < 65%
Activity [20]: < 65%

Structure (SMILES): c1ccc2c(-c3cnn4cc(-c5ccc(N6CCNCC6)cc5)cnc34)ccnc2c1
Activity [32]: < 65%
Activity [33]: < 65%
Activity [34]: < 65%
Activity (TGF-beta receptor type-2 [35]): < 65%
Activity [36]: < 65%
IC50 (TGF-beta receptor type-2 [37]): 0.156 µM

Second part, the compound after the results:

IC50 [5]: 0.279 µM
IC50 [6]: 0.0146 µM
Activity [7]: < 65%
Activity [8]: < 65%
IC50 [9]: 4.38 µM
Activity [10]: < 65%
Activity [11]: < 65%
IC50 [12]: 5.4 µM
Activity [13]: < 65%
IC50 [14]: 1.89 µM
Structure (SMILES): O=C1Nc2ccc(I)cc2C1=Cc1cc(Br)c(O)c(Br)c1 [GW305074X]

IC50 [21]: 0.621 µM
Activity [22]: < 65%
Activity [23]: < 65%
IC50 [24]: 9.95 µM
Activity [25]: < 65%
IC50 [26]: 0.0529 µM
IC50 [27]: 0.743 µM
IC50 [28]: 16.4 µM
Activity [29]: < 65%
Structure (SMILES): Cn1cc(C2=C(c3cn(CCCSC(=N)N)c4ccccc34)C(=O)NC2=O)c2ccccc21 [BISINDOLYLMALEIMIDE IX]

Activity [30]: < 65%
Structure (SMILES): CCOc1nc(NC(=O)Cc2cc(OC)ccc2OC)cc(N)c1C#N

IC50 (Tau-tubulin kinase 1 [31]): 47.2 µM
Structure (SMILES): Oc1ccc(-c2nc(-c3ccncc3)c(-c3ccc(F)cc3)[nH]2)cc1 [SB-202190]
